Activity calls are given as the source filed them. The rule behind the calls is not given here.
How the values were obtained:
Androgen receptor [1] = target: T1, Androgen receptor (Homo sapiens, UniProt P10275); assay: Displacement of [3H]DHT from androgen receptor in human MDA-MB-453 cells; format: cell-based
T1 sequence (P10275 whole entry): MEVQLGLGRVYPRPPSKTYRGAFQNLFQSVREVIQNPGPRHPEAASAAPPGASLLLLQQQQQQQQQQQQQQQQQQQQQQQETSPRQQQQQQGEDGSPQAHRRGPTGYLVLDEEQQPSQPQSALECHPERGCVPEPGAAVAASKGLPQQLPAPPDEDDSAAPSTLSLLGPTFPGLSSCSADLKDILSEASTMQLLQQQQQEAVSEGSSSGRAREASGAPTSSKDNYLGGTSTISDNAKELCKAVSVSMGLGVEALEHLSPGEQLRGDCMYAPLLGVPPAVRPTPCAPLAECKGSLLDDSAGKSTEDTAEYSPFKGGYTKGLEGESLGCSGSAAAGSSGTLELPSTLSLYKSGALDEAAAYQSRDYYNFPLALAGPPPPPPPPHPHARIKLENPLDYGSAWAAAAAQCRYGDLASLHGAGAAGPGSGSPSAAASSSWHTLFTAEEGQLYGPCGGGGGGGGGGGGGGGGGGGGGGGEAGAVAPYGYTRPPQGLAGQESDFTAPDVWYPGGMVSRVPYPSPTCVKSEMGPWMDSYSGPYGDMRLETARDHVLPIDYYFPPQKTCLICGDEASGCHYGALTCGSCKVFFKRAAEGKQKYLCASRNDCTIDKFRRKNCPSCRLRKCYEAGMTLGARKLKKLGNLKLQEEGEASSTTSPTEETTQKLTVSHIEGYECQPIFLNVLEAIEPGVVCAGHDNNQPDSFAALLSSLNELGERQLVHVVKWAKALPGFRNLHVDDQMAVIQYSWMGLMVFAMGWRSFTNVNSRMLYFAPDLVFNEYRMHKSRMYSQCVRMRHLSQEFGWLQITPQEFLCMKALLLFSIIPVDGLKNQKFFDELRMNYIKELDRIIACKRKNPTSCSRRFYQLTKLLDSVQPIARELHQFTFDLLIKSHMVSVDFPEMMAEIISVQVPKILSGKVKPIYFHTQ

Androgen receptor [2] = target: T1, Androgen receptor; assay: Antagonist activity at androgen receptor in human MDA-MB-453 cells assessed as inhibition of testosterone-induced transactivation; format: cell-based
[3] = Plasma concentration in immature rat prostate weight model at 30 mg/kg, po qd administered for 4 days measured 2 hrs post last dose on day 4; format: ADME, organism-based
Rattus norvegicus [4] = assay: In vivo antagonist activity at androgen receptor in immature rat prostate weight model assessed as testosterone propionate-induced weight of seminal vesicles over full body weight at 30 mg/kg, po qd administered for 4 days relative to testosterone propionate treated control; format: functional; design: scale not given: the % may be the effect or the level left
[5] = AUC (0 to 24 hrs) in BALB/c athymic mouse xenografted with bicalutamide-resistant human CWR22-BMSLD1 cells at 78 mg/kg, po; format: ADME, organism-based; design: time < 24 hr, dose 78 mg/kg, route oral; conditions: in vivo
Rattus norvegicus [6] = assay: In vivo antagonist activity at androgen receptor in immature rat prostate weight model assessed as testosterone propionate-induced weight of seminal vesicles over full body weight at 25 mg/kg, po qd administered for 4 days relative to testosterone propionate treated control; format: functional; design: scale not given: the % may be the effect or the level left
[7] = Plasma concentration in immature rat prostate weight model at 25 mg/kg, po qd administered for 4 days measured 2 hrs post last dose on day 4; format: ADME, organism-based
[8] = Antitumor activity against bicalutamide-resistant human CWR22-BMSLD1 cells xenografted in BALB/c athymic mouse assessed as tumor growth inhibition at 150 mg/kg, po qd for 20 days measured on last day of dosing relative to control; format: functional; conditions: 480 h, read-out: TGI
[9] = Drug metabolism in mouse liver microsomes assessed as oxidative metabolite formation; format: ADME
Mus musculus = assay: Toxicity in BALB/c athymic mouse xenografted with bicalutamide-resistant human CWR22-BMSLD1 cells at 150 mg/kg, po qd for 20 days; format: organism-based; conditions: in vivo, 480 h
CWR22-BMSLD1 = assay: Antitumor activity against bicalutamide-resistant human CWR22-BMSLD1 cells xenografted in BALB/c athymic mouse assessed as tumor stasis at 150 mg/kg, po qd for 20 days; format: functional, organism-based
[10] = Plasma concentration in immature rat prostate weight model at 15 mg/kg, po qd administered for 4 days measured 2 hrs post last dose on day 4; format: ADME, organism-based
Rattus norvegicus [11] = assay: In vivo antagonist activity at androgen receptor in immature rat prostate weight model assessed as testosterone propionate-induced weight of seminal vesicles over full body weight at 15 mg/kg, po qd administered for 4 days relative to testosterone propionate treated control; format: functional; design: scale not given: the % may be the effect or the level left
[12] = Plasma concentration in immature rat prostate weight model at 10 mg/kg, po qd administered for 4 days measured 2 hrs post last dose on day 4; format: ADME, organism-based
Rattus norvegicus [13] = assay: In vivo antagonist activity at androgen receptor in immature rat prostate weight model assessed as testosterone propionate-induced weight of seminal vesicles over full body weight at 10 mg/kg, po qd administered for 4 days relative to testosterone propionate treated control; format: functional; design: scale not given: the % may be the effect or the level left

SMILES	Ki (Androgen receptor [1]) [nM]	IC50 (Androgen receptor [2]) [nM]	AUC(0-t) at 24 h [5] [µM·h]	also measured
C[C@@]12[C@@H](CN(c3ccc(C#N)c(C(F)(F)F)c3)S1(=O)=O)[C@H]1C[C@H](O)[C@@H]2C1	3	106	> 2	concentration at 2 h [3]: 790 nM; Activity (Rattus norvegicus [4]): 60%
C[C@@]12[C@@H]3C=C[C@@H](C3)[C@@H]1CN(c1ccc(C#N)c(C(F)(F)F)c1)S2(=O)=O	2	30	–	Activity (Rattus norvegicus [6]): 35%; concentration at 2 h [7]: 50 nM; inhibition in vivo at 150 mg/kg [8]: 87%; Drug metabolism [9]: Metabolite_Detected; Activity (Mus musculus): Non-Toxic; Activity (CWR22-BMSLD1): Active
CNC(=O)[C@@]12[C@@H]3CC[C@@H](C3)[C@@H]1CN(c1ccc(C#N)c(C(F)(F)F)c1)S2(=O)=O	3	44	> 2	concentration at 2 h [10]: 7250 nM; Activity (Rattus norvegicus [11]): 51%
CC(O)(CS(=O)(=O)c1ccc(F)cc1)C(=O)Nc1ccc(C#N)c(C(F)(F)F)c1 (centres undefined) [BICALUTAMIDE]	–	–	–	inhibition in vivo at 150 mg/kg [8]: 39%; Activity (Mus musculus): Non-Toxic; concentration at 2 h [12]: 9500 nM; Activity (Rattus norvegicus [13]): 41%
C[C@@]12[C@@H]3CC[C@@H](C3=O)[C@@H]1CN(c1ccc(C#N)c(C(F)(F)F)c1)S2(=O)=O	8	67	–	–
N#Cc1ccc(N2C[C@H]3[C@H]4CC[C@H](C4)[C@@]3(C(N)=O)S2(=O)=O)cc1C(F)(F)F	3	55	> 2	Activity (Rattus norvegicus [11]): 55%
C[C@@]12[C@H]3C[C@H]([C@H](O)C3)[C@@H]1CN(c1ccc(C#N)c(C(F)(F)F)c1)S2(=O)=O	28	430	> 2	Activity (Rattus norvegicus [4]): 58%
C[C@@]12[C@@H]3CC[C@@H](C3O)[C@@H]1CN(c1ccc(C#N)c(C(F)(F)F)c1)S2(=O)=O (stereo in doubt; 17)	48	327	–	–
CNC(=O)[C@@]12[C@@H](CN(c3ccc(C#N)c(C(F)(F)F)c3)S1(=O)=O)[C@H]1C[C@H](F)[C@@H]2C1	5	57	0.0031	concentration at 2 h [10]: 2900 nM; Activity (Rattus norvegicus [11]): 30%
N#Cc1ccc(N2C[C@@H]3[C@@H]([C@@H]4C=C[C@H]3C4)S2(=O)=O)cc1C(F)(F)F	12	219	–	–
C[C@@]12[C@@H]3CC[C@@H](C3)[C@@H]1CN(c1ccc(C#N)c(C(F)(F)F)c1)S2(=O)=O	3	73	–	–
C[C@@]12[C@@H](CN(c3ccc(C#N)c(C(F)(F)F)c3)S1(=O)=O)[C@H]1C[C@H](F)[C@@H]2C1	8	91	> 2	concentration at 2 h [10]: 2800 nM; Activity (Rattus norvegicus [11]): 65%
N#Cc1ccc(N2C[C@H]3[C@H]4CC[C@H](C4)[C@H]3S2(=O)=O)cc1C(F)(F)F	3	130	–	–
CCS(=O)(=O)N[C@@H]1C[C@@]2(C)O[C@]1(C)[C@@H]1C(=O)N(c3ccc(C#N)c(C(F)(F)F)c3)C(=O)[C@@H]12	–	–	–	concentration at 2 h [12]: 4000 nM; Activity (Rattus norvegicus [13]): 26%
C[C@@]12[C@@H]3CC[C@@H](C3O)[C@@H]1CN(c1ccc(C#N)c(C(F)(F)F)c1)S2(=O)=O (stereo in doubt; 15)	106	444	–	–

From ChEMBL document CHEMBL3868609, “[2.2.1]-Bicyclic sultams as potent androgen receptor antagonists” (Bioorg Med Chem Lett, 2016)
